According to patent publication US20250179061A1 (SIRONAX LTD., priority 2022, published 2025):

Each molecule was assayed on HT-29 cells (assay: HT-29 necroptosis cell viability assay (TNF-α/SMAC mimetic/zVAD-FMK, CellTiter-Glo)). Details: Homo sapiens, HT-29, HT-29 cells, necroptosis induced by TNF-α/SMAC mimetic/zVAD-FMK, CellTiter-Glo; read-out: Activity (IC50 class).
Assay type: cell-based
Method: Compounds 1-702 of the disclosure were tested for biological activity, following the experimental procedures described below.
• Cell line: HT-29 (ATCC® HTB-38™) • Culture medium: McCOY's 5A, Gibco, Cat No. 16600-082 • FBS, Gibco, Cat No. 10099-141 C • Trypsin: Gibco, Cat No. 25200-056 • DMSO: Sigma, Cat No. 67-68-5, 1L • Assay plate: Corning #3903 • Compound dilution plate: Corning #3357 • Inducers: TNFα, GenScript, Cat No. Z01001-50, • SmacM, Cat. No., HY-15989, MedChemExpress (MCE) • Z_VAD FMK, TargetMol, T6013 • Cell Titer-Glo® Luminescent Cell Viability Assay Kit: Promega, Cat No. G7573 • EnVision: PerkinElmer, 2105-0010
• 1. HT-29 cells were checked every day to make sure that they were healthy and growing as expected. They were subjected to sub-culturing when they were approximately 80% confluent. • 2. The culture medium, McCOY's 5A medium (Gibco, Cat No. 16600-082) with 10% fetal bovine serum or FBS (Gibco, Cat No. 10099-141C), was pre-warmed in a 37° C. water bath for at least 30 min. • 3. When the cells had reached a desired level of confluency of 80% in a T75 flask, the medium was aspirated, and the cells were washed with warm phosphate buffered saline or PBS two times. • 4. 2-3 ml fresh warm trypsin (Gibco, Cat No. 25200-056) solution was added to the washed cells. The flask with the cells was transferred to a 37° C. incubator. • 5. After 5 minutes, the side of the flask was tapped, and the flask was examined under a microscope for detachment of the cells to the flask. If necessary, the cells were kept in the incubator for an additional 5-10 minutes, with occasional tapping, until lifting was complete. • 6. The trypsin reaction was neutralized by transferring 6-9 ml cell culture medium to sterile 15 ml conical tubes, and by centrifuging the cell culture at 300×g for 7 minutes to pellet the cells (supernatant decanted). • 7. The cells were resuspended in fresh cell culture medium and the cell counting was performed using a hemocytometer. • 8. 100 μl of the resuspended cell culture medium containing ˜5,000 cells were transferred into each well of the sterile 96-well cell culture plate (Corning 3903) and cultured overnight at 37° C. with 5% CO2.
• 1. All test compounds were dissolved in DMSO (Dimethyl sulfoxide) to create a 20 mM stock. • 2. 3 μl of 20 mM stock of each compound was mixed with 27 μl DMSO, and the compound solution was further diluted at a titration ratio of 1:3 (20 μl compound solution+40 μl DMSO) till the 10 points end. • 3. All culture medium was removed from assay plates filled with HT-29 cell cultures. The cells were then washed with 1 PBS, and resuspsended in fresh, FBS-free McCOY's 5A medium containing a cocktail of TNF-α (10 ng/ml), a SMAC mimetic compound (6 μM) and Z-VAD-fluoromethylketone or zVAD-FMK (10 μM) to stimulate the HT-29 cells to increase RIP1 kinase levels and necroptosis. • 4. 0.5 μL of the diluted compound solution was added to the corresponding 96-well assay plates. • 5. The assay plates were incubated for 20 hours at 37° C. with 5% CO2.
• 1. The CellTiter-Glo® Luminescent Cell Viability Assay was employed to detect the ATP levels of viable HT-29 cells. • 2. The CellTiter-Glo® buffer and the lyophilized substrate were equilibrated to room temperature prior to use. • 3. The CellTiter-Glo® substrate was resuspended with CellTiter-Glo® buffer, then mixed by gently vortexing to obtain a homogeneous solution. • 4. 20 μl of the enzyme/substrate mixture was transferred by multi-channel pipetting into 96-well assay plates. • 5. The assay plates were placed on an orbital shaker and the contents were shaken for 3 minutes to induce cell lysis. • 6. The assay plates were incubated at room temperature for 10 minutes to stabilize the luminescent signal. • 7. The luminescence signals were read and recorded with EnVision. • 8. The geometric mean IC50 values were calculated from 10 points response dose with duplicates. […]

Compound	IC50
Cc1nc(C2=CCOC2)sc1Oc1ccc(-n2ncn(Cc3c(F)cccc3F)c2=O)cc1 [Example 632, 4-(2,6-difluorobenzyl)-2-(4-((2-(2,5-dihydrofuran-3-yl)-4-methylthiazol-5-yl)oxy)phenyl)-2,4-dihydro-3H-1,2,4-triazol-3-one]	< 100 nM
CCOC(=O)c1nc(COc2ccc(-n3ncn(Cc4c(F)cccc4F)c3=O)cc2F)cs1 [Example 654, Ethyl 4-((4-(4-(2,6-difluorobenzyl)-5-oxo-4,5-dihydro-1H-1,2,4-triazol-1-yl)-2-fluorophenoxy)methyl)thiazole-2-carboxylate]	1000 to 10000 nM
Cc1nc(C2=CCOCC2)sc1Oc1ccc(-n2ncn(Cc3c(F)cccc3F)c2=O)cc1 [Example 631, 4-(2,6-difluorobenzyl)-2-(4-((2-(3,6-dihydro-2H-pyran-4-yl)-4-methylthiazol-5-yl)oxy)phenyl)-2,4-dihydro-3H-1,2,4-triazol-3-one]	< 100 nM
Cc1nc(C(N)=O)sc1OC1CCC(n2nc3n(c2=O)[C@H](c2ccccc2)CC3)CC1 (stereo partly drawn) [Example 635, (S)-4-methyl-5-((4-(3-oxo-5-phenyl-6,7-dihydro-3H-pyrrolo[2,1-c][1,2,4]triazol-2(5H)-yl)cyclohexyl)oxy)thiazole-2-carboxamide]	1000 to 10000 nM
Cc1nc(Br)cn1Cc1ccc(-n2ncn(Cc3c(F)cccc3F)c2=O)cc1 [Example 666, 2-(4-((4-bromo-2-methyl-1H-imidazol-1-yl)methyl)phenyl)-4-(2,6-difluorobenzyl)-2,4-dihydro-3H-1,2,4-triazol-3-one]	< 100 nM

Same assay, conditions: Homo sapiens, HT-29, HT-29 necroptosis cell viability assay; class symbols for IC50; read-out: Activity

Compound	IC50
N#Cc1ccc(=O)n(Cc2ccc(-n3ncn(Cc4c(F)cccc4F)c3=O)cc2)c1 [Example 195, 1-(4-(4-(2,6-difluorobenzyl)-5-oxo-4,5-dihydro-1H-1,2,4-triazol-1-yl)benzyl)-6-oxo-1,6-dihydropyridine-3-carbonitrile]	100 to 1000 nM
Cc1nc(C#N)sc1Oc1ccc(-n2ncn(Cc3cc(Cl)ccn3)c2=O)cc1F [Example 574, 5-(4-(4-((4-chloropyridin-2-yl)methyl)-5-oxo-4,5-dihydro-1H-1,2,4-triazol-1-yl)-2-fluorophenoxy)-4-methylthiazole-2-carbonitrile]	100 to 1000 nM
Cc1nc(C2(O)CC2)sc1Oc1ccc(-n2ncn(Cc3c(F)cccc3F)c2=O)cc1F [Example 582, 4-(2,6-difluorobenzyl)-2-(3-fluoro-4-((2-(1-hydroxycyclopropyl)-4-methylthiazol-5-yl)oxy)phenyl)-2,4-dihydro-3H-1,2,4-triazol-3-one]	< 100 nM
Cc1nn(Cc2ccc(-n3ncn(Cc4c(F)cccc4F)c3=O)cc2)c(C)c1C [Example 189, 4-(2,6-difluorobenzyl)-2-(4-((3,4,5-trimethyl-1H-pyrazol-1-yl)methyl)phenyl)-2,4-dihydro-3H-1,2,4-triazol-3-one]	< 100 nM
CC(=O)c1nc(C)c(Oc2ccc(-n3ncn(Cc4c(F)cccc4F)c3=O)cc2F)n1C [Example 174, 2-(4-((2-acetyl-1,4-dimethyl-1H-imidazol-5-yl)oxy)-3-fluorophenyl)-4-(2,6-difluorobenzyl)-2,4-dihydro-3H-1,2,4-triazol-3-one]	< 100 nM
Cc1nc(C(C)(C)O)sc1Oc1ccc(-n2ncn(Cc3ccccc3C#N)c2=O)cc1F [Example 584, 2-((1-(3-fluoro-4-((2-(2-hydroxypropan-2-yl)-4-methylthiazol-5-yl)oxy)phenyl)-5-oxo-1,5-dihydro-4H-1,2,4-triazol-4-yl)methyl)benzonitrile]	100 to 1000 nM
Cc1cn(C)c(=O)n1Cc1ccc(-n2ncn(Cc3c(F)cccc3F)c2=O)cc1 [Example 214, 4-(2,6-difluorobenzyl)-2-(4-((3,5-dimethyl-2-oxo-2,3-dihydro-1H-imidazol-1-yl)methyl)phenyl)-2,4-dihydro-3H-1,2,4-triazol-3-one]	1000 to 10000 nM
Cc1nc(C(F)(F)C(=O)O)sc1Oc1ccc(-n2ncn(Cc3c(F)cccc3F)c2=O)cc1F [Example 170, 2-(5-(4-(4-(2,6-difluorobenzyl)-5-oxo-4,5-dihydro-1H-1,2,4-triazol-1-yl)-2-fluorophenoxy)-4-methylthiazol-2-yl)-2,2-difluoroacetic acid]	100 to 1000 nM

Same assay, conditions: Homo sapiens, HT-29, HT-29 necroptosis cell viability, IC50 class symbols; read-out: Activity

Compound	IC50
O=c1n(Cc2c(F)cccc2F)cnn1-c1ccc(Oc2ccnc(NC34CC(C3)C4)c2)cc1 [Example 306, 2-[4-[[2-(1-bicyclo[1.1.1]pentanylamino)-4-pyridyl]oxy]phenyl]-4-[(2,6-difluorophenyl)methyl]-1,2,4-triazol-3-one]	100 to 1000 nM
Cc1nc(C(C)(C)O)sc1Oc1ncc(-n2ncn(Cc3c(F)cccc3F)c2=O)cc1Cl [Example 468, 2-(5-chloro-6-((2-(2-hydroxypropan-2-yl)-4-methylthiazol-5-yl)oxy)pyridin-3-yl)-4-(2,6-difluorobenzyl)-2,4-dihydro-3H-1,2,4-triazol-3-one]	< 100 nM
Cc1nc(C(C)(C)O)sc1Oc1ccc(-n2ncn(Cc3cnccc3Cl)c2=O)cc1F [Example 467, 4-((4-chloropyridin-3-yl)methyl)-2-(3-fluoro-4-((2-(2-hydroxypropan-2-yl)-4-methylthiazol-5-yl)oxy)phenyl)-2,4-dihydro-3H-1,2,4-triazol-3-one]	100 to 1000 nM
CCCOC1CN(c2cc(Oc3ccc(-n4ncn(Cc5c(F)cccc5F)c4=O)cc3)ccn2)C1 [Example 243, 4-(2,6-difluorobenzyl)-2-(4-((2-(3-propoxyazetidin-1-yl)pyridin-4-yl)oxy)phenyl)-2,4-dihydro-3H-1,2,4-triazol-3-one]	< 100 nM
Cc1cnc(N2CCC(C)(C#N)C2)cc1Oc1ccc(-n2ncn(Cc3c(F)cccc3F)c2=O)cc1Cl (stereo not drawn) [Example 397, 1-(4-(2-chloro-4-(4-(2,6-difluorobenzyl)-5-oxo-4,5-dihydro-1H-1,2,4-triazol-1-yl)phenoxy)-5-methylpyridin-2-yl)-3-methylpyrrolidine-3-carbonitrile]	< 100 nM
Cc1nc(C(C)O)sc1Oc1ccc(-n2ncn(Cc3c(F)cccc3F)c2=O)cc1 (racemic) [Example 459, 4-(2,6-difluorobenzyl)-2-(4-((2-(1-hydroxyethyl)-4-methylthiazol-5-yl)oxy)phenyl)-2,4-dihydro-3H-1,2,4-triazol-3-one]	< 100 nM

Same assay, conditions: Homo sapiens; HT-29 cells stimulated with TNF-α (10 ng/ml), SMAC mimetic (6 μM) and zVAD-FMK (10 μM); 20 hours; CellTiter-Glo ATP luminescence; geometric mean IC50 from 10 points; read-out: Activity

Compound	IC50
Cc1nc(N2CC(C(C)(C)N)C2)sc1Oc1ccc(-n2ncn(Cc3c(F)cccc3F)c2=O)cc1 [Example 68, 2-(4-((2-(3-(2-aminopropan-2-yl)azetidin-1-yl)-4-methylthiazol-5-yl)oxy)phenyl)-4-(2,6-difluorobenzyl)-2,4-dihydro-3H-1,2,4-triazol-3-one]	< 100 nM
N#Cc1cnc(Oc2ccc(-n3ncn(Cc4c(F)cccc4F)c3=O)cc2)s1 [Example 77, 2-(4-(4-(2,6-difluorobenzyl)-5-oxo-4,5-dihydro-1H-1,2,4-triazol-1-yl)phenoxy)thiazole-5-carbonitrile]	100 to 1000 nM
